The record followed here is the Kinase Knowledgebase extract (Sharma et al. 2016).

For the assay, the target named is ROCK2 (human) (UniProt O75116). The assay is described as follows: Inhibition of ROCK2 Kinase Activity. Conditions: concentration not given here.
ROCK2 (human), sequence (O75116 whole entry, looked up): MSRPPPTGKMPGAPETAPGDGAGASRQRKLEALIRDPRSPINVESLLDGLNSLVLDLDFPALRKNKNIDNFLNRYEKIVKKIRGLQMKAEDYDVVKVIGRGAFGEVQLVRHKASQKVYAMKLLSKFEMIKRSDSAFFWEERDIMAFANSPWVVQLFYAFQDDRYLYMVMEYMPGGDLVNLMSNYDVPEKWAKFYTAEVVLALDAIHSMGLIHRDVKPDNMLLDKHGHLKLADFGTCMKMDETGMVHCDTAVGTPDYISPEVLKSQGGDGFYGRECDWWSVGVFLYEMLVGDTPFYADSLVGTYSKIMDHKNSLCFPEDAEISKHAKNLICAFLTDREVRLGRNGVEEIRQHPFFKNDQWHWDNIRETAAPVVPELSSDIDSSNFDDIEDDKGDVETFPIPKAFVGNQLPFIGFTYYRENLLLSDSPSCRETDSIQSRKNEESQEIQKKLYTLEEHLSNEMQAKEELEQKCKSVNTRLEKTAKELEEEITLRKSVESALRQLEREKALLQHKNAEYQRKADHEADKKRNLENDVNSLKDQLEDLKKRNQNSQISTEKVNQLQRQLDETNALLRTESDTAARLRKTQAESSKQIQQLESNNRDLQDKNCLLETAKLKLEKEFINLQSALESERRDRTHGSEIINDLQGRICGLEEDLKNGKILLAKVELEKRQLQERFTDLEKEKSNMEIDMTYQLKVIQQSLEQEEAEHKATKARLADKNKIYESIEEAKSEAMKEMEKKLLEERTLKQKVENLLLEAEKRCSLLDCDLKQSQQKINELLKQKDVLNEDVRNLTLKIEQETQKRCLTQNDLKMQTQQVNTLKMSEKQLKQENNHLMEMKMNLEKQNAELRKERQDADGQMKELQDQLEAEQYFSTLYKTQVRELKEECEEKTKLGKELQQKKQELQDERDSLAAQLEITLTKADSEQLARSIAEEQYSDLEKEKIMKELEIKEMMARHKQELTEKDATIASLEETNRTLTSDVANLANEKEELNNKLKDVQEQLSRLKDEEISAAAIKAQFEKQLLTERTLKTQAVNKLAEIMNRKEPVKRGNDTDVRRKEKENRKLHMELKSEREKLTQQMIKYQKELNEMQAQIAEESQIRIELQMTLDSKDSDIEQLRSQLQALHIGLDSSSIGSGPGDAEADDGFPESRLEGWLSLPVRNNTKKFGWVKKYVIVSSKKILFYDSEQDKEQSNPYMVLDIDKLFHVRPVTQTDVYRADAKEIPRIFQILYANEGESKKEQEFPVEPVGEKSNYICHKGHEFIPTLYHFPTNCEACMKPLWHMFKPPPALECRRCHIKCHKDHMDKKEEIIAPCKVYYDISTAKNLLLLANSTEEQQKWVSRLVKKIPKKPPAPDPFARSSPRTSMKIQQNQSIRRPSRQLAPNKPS
As to `Cn1c(-c2ccccc2)nc2c(-c3ccc(F)cc3)ncnc21`, the inhibition (commonly how much of the control response was suppressed) stood at 0%.

Compound `Cn1c(-c2ccc([S+](C)[O-])cc2)nc2c(Sc3ccc(F)cc3)ncnc21` (centres undefined) showed an inhibition of 0%. For the compound `c1ccc(-n2cnc3ncncc32)cc1`, the inhibition was found to be 0%.

`Fc1ccc(Cn2cnc3c(Sc4ccc(F)cc4)ncnc32)cc1` gave an inhibition of 0%. With `Cn1cnc2c(Nc3ccccc3)ncnc21`, the inhibition is 0%.

`C(=C\c1ncnc2[nH]cnc12)/c1ccccc1` came in with an inhibition of 22%.

`CSc1ccc(-c2nc3c(Sc4ccccc4)ncnc3n2C)cc1` gave an inhibition of 0%. Compound `CSc1ccc(-c2nc3c(Sc4ccc(F)cc4)ncnc3n2C)cc1` yielded an inhibition of 0%. As for `Cn1c(Br)nc2c(Sc3ccccc3)ncnc21`, the figure is 0%; as for `Fc1ccc(Cn2cnc3c(Cl)ncnc32)cc1`, 0%; as for `Cn1c(-c2ccc(S(C)(=O)=O)cc2)nc2c(Sc3ccc(F)cc3)ncnc21`, 0%. In turn, `Cn1c(C#CCCO)nc2c(Sc3ccccc3)ncnc21` showed an inhibition of 0%. Take `Cn1cnc2c(/C=C/c3ccccc3)ncnc21`: the inhibition turned out to be 0%. Compound `Nc1ncnc2c1ncn2Cc1ccc(F)cc1` had an inhibition of 0%.
